# According to patent publication US20100069304A1, “PROTECTIVE EFFECTS OF INHIBITING THE INTERACTION OF CALMODULIN AND MUTANT HUNTINGTIN PROTEIN” (priority 2008, published 2010):
# “Also recorded” adds a separate entry of the source.
# Assays:
# [1] = molecular target: T1, htt-exon1-44Q binding to CaM (Homo sapiens, UniProt P42858, INS38QQQQQQQQQQQQQQQQQQQQQQQ); assay: In vitro mutant huntingtin-calmodulin binding (calmodulin-agarose)
# T1 construct: encoding exon 1 of huntingtin with 44 glutamine residues; MBP; host or cells: Escherichia coli
# T1 sequence (P42858 with tags, fused parts or gaps with the stated changes limits assumed): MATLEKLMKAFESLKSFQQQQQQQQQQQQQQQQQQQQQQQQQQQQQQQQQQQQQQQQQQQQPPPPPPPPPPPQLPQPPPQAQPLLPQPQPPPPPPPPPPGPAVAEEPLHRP
# TGase = TGase activity in mouse striatal homogenates; format: in vivo; conditions: 500 μM GTPγS, all mouse groups
# Method: TGase II Activity Assay. TGase activity was measured by detecting the incorporation of a biotinylated TGase amine substrate, 5-(biotinamido)pentylamine (Pierce, Rockford, Ill.) into N,N'-dimethylcasein (Calbiochem, San Diego, Calif.) as previously described (Dudek et al., 2009). 96-well Immulon 4 HBX plates (Dynatech, Franklin, Mass.) were coated with 100 μl of N,N′-dimethylcasein (20 mg/ml) in 0.05M sodium bicarbonate, and stored at 4° C. overnight. After the unbound N,N′-dimethylcasein was discarded, the plate was washed with PBS and blocked with nonfat dry milk (2% milk in PBS) for 1 hour at 37° C., followed by 3 washes with PBS. Striatum from the various mice were homogenized in 0.1 M Tris-HCl pH 8.3, 1 mM EDTA, 1 mM PMSF, and protease inhibitor cocktail. Striatal homogenates (15 μg of protein/sample) were added to the plate with 0.1 M Tris-HCl pH 8.5, 0.15 M NaCl, 5 mM DTT, 0.5 mM biotin-labeled pentylamine, and 5 mM CaCl2. The mixture was incubated for 1 hour at 37° C. The plate was washed with TBS and 0.001% Tween followed by incubation with streptavidin conjugated to HRP (Jackson ImmunoResearch, West Grove, Pa.) for 1 hour at room temperature. […] Then the reaction was stopped with 3N sulfuric acid and the absorbance was read at 450 nm. […] Each sample was measured in triplicate.
# transglutaminase = assay: In situ transglutaminase assay in intact cells; format: cell-based, human; conditions: SHSY5Y-htt-N63-148Q cells
# Method: In situ transglutaminase assay. In this in situ assay, transglutaminase activity is measured in intact cells via incorporation of a polyamine and the presence of the transglutaminase-catalyzed bond. Forty-two hours post viral infection, cells were treated with 2 mM 5-(biotinamido)pentylamine, a biotinylated polyamine (Pierce, Rockford, Ill.), and 6 hours post polyamine treatment, cells were harvested and lysed in 0.1 M Tris-HCl pH 8.3, 1 mM EDTA, 1 mM PMSF, and protease inhibitor cocktail. 96-well Immulon 4 HBX plates (Dynatech, Franklin, Mass.) were coated with anti-ε-(γ-glutamyl)lysine (81D4) antibody (CovalAb, Lyon, France) in 0.1 M Na2HPO4.7 H2O pH 9 overnight at 4° C. Then the plates were washed with PBS and blocked with 2% milk in PBS for 1 hour at room temperature, followed by 3 washes with PBS with 0.0375% Tween. Cell lysates (50 μg of protein/sample/well) were added to the wells in triplicates and incubated for 1 hour at 37° C. The plate was washed with PBS and 0.0375% Tween, followed by incubation with streptavidin conjugated to HRP (Jackson ImmunoResearch, West Grove, Pa.) for 1 hour at room temperature. After final washes, a 1×TMB substrate solution (eBioscience, SanDiego, Calif.) was added and color was allowed to develop for 5-10 minutes. The reaction was stopped with 3 N sulfuric acid and the absorbance was read at 450 nm.
# [2] = tested on: cells expressing mutant huntingtin and TG; conditions: cited from earlier work
# HD transgenic mice = conditions: cited from earlier work
# [3] = molecular target: T2, mutant huntingtin (htt-N63-148Q) (Homo sapiens, UniProt P42858, INS26QQQQQQQQQQ/INS27QQQQQQQQQQ/INS28QQQQQQQQQQ/INS29QQQQQQQQQQ/INS30QQQQQQQQQQ/INS31QQQQQQQQQQ/INS32QQQQQQQQQQ/INS33QQQQQQQQQQ/INS34QQQQQQQQQQ/INS35QQQQQQQQQQ/INS36QQQQQQQQQQ/INS37QQQQQQQQQQ/INS38QQQQQQQ); assay: TG-modified huntingtin (81D4 immunoprecipitation and immunoblot) in transfected HEK-293T cells; format: cell-based; conditions: HEK-293T cells with htt-N63-148Q, TG2 and CaM construct vs vector control
# T2 construct: myc; expressed in transfected cells; host or cells: HEK-293T
# T2 sequence (P42858 with tags, fused parts or gaps limits assumed, stated change not applied): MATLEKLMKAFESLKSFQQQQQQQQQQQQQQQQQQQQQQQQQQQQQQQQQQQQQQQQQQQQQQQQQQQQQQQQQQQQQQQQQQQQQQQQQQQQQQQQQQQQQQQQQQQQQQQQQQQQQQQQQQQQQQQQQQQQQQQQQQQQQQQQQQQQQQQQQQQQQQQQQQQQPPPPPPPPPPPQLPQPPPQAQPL
# Method: HEK-293T cells were grown in OptiMEM reduced serum medium (Invitrogen, Carlsbad, Calif.) containing nonessential amino acids, antimycotic and antibiotic agents, and 10% FBS, in the presence of 5% CO2 at 37° C. Cells were grown to 80-90% confluency and transfected using Lipofectamine Plus (Invitrogen, Carlsbald, Calif.). […] Forty-eight hours after transfection, cells were harvested and resuspened in lysis buffer containing 50 mM Tris-HCl, pH 8.8, 100 mM NaCl, 5 mM MgCl2, 0.05% NP-40, 1 mM EDTA (Tang T S, Tu H, Chan E Y, et al. Huntingtin and huntingtin-associated protein 1 influence neuronal calcium signaling mediated by inositol-(1,4,5)triphosphate receptor type 1. Neuron 2003;39:227-239) and 1:1,000 protease inhibitor mixture (Sigma, St. Louis, Mo.). […]
# Immunoblots. […] Signal was detected using enhanced chemiluminescence (ECL) Western blotting detection reagents (Amersham Biosciences, Piscataway, N.J.). Immunoblots were quantified by calculating the sum of the densities of all of the pixels within each protein band as the integrated optical density (IOD), using Scion Image for Windows (Scion, Frederick, Md.). Film background IOD was measured and subtracted from each band IOD. Measurements were done in triplicate and the mean was calculated.
compound,measurement,setting,value
"Cl.NCCCCCCNS(=O)(=O)c1cccc2ccccc12 [W-5, N-(6-Aminohexyl)-1-naphthalenesulfonamide hydrochloride]",amount of CaM-bound htt-exon1-44Q,[1]; 664 μM W-5 along with 10 μM of CaM-peptide,significantly increased
same,amount of CaM-bound htt-exon1-44Q,[1]; W-5 alone,did not affect the amount of CaM-bound htt-exonl-44Q
Nc1nc2c(ncn2[C@@H]2O[C@H](COP(=O)(O)OP(=O)(O)OP(O)(O)=S)[C@@H](O)[C@H]2O)c(=O)[nH]1 [GTPγS],reduction of TGase activity,TGase,at least 60%
GDTVEREKDAYNSLEGFDNTIHTLRADIGMVEEVAKSKRDEEFLE [scram-CaM-peptide],total TG activity in situ between infections,transglutaminase,no significant difference in total TG activity
NCCSSCCN [cystamine],cell survival,[2],increased cell survival
same,cross-linking of huntingtin,[2],decreased the cross-linking of huntingtin
same,survival,HD transgenic mice,increase survival
"CaM-N-term: calmodulin fragment: first 76 amino acids, contains the first two Ca2+ binding sites",TG-modified huntingtin compared to control cells (in words),[3],"no significant decrease in TG-modified huntingtin, but rather an increase; also recorded: did not reduce the TG-catalyzed modifications of huntingtin"
